System: Sprague dawley (SD) rats
Assay: Retinal vascular permeability in streptozotocin induced diabetic retinopathy
Format: in vivo, rat
Conditions: intravitreally injected 1-week after streptozotocin, observed at 3 weeks with dextran FITC
Protocol: Diabetes are induced by performing intraperitoneal injection of 60 mg/kg of streptozotocin (Sigma, St Louis, Mo., USA) into 8-week-old male Sprague dawley (SD) rats (250 g). 3 days later, serum glucose level was measured and rats having serum glucose level of […] and more are selected and used in experiments. Capsiate or capsaicin was intravitreally injected 1-week after the injection of streptozotocin, respectively. 3 weeks after the injection of streptozotocin, 0.5 ml of dextran FITC (25 mg/ml, MW 40K, Sigma, St Louis, Mo., USA) was injected through tail vein of tested rats to imaging retinal vascular pattern. Retinal tissues of the rats are isolated and observed by fluorescent microscopy (Olympus, Tokyo, Japan). The increase of retinal vascular permeability is observed in nonproliferative diabetic retinopathy, proliferative diabetic retinopathy and diabetic macular edema and result from cracks in vascular vessel due to breakdown of blood-retinal barrier (BRB).

COc1cc(CNC(=O)CCCC/C=C/C(C)C)ccc1O [Capsaicin, capsaicin, reference compound]
increment of retinal vascular permeability: does not effect

Source: patent US9572786B2, “Use of capsiate or dihydrocapsidate” (Catholic University Industry Academy Cooperation Foundation, priority 2007, dated 2017)
